In assay [1] the target is full-length human HPK1 (MAP4K1) (Homo sapiens (Human), UniProt Q92918). The experiment in a line: HPK1 Kinase Assay (Biochemical Assay), ADP-Glo. The note with it: GST-HPK1 3.2 nM, 10 μM ATP, MBP substrate, read-out: HPK1 enzymatic IC50. From the text:
HPK1 Kinase Assay (Biochemical Assay).
A recombinant fusion protein consisting of full-length human HPK1 (MAP4K1) with an N-terminal Glutatione S-transferase (GST) tag was produced in insect cells Sf21 using the baculovirus expression system. GST-HPK1 protein was purified from cell lysates by glutathione Sepharose affinity chromatography. The assay is run in three continuous steps: 1) the HPK1 enzymatic kinase reaction, 2) an ATP depletion, and 3) the ADP detection, the steps 2 and 3 are performed with ADP-Glo™ Kinase Assay kit from Promega (V9101). Test compounds were prepared by 10-point serial dilution in dimethyl sulfoxide (DMSO) and 100 nL of each dilution was spotted onto a 384-well Optiplate (Perkin Elmer and Cat #6007299) by Labcyte Echo. 5 μL kinase reaction buffer (0.02% Brij-35, 2 mM DTT, 50 mM HEPES pH 7.5, MgCl2 10 mM, BSA 0.01% and O-glycerophosphate 12.5 mM) containing HPK1 (3.2 nM) enzyme was transferred to each well and incubated for 15 minutes at room temperature at 60% humidity. The enzymatic reaction was started by adding 5 μl of Start-Mix (10 μM ATP and 3.235 μM MBP). After 120 minutes, the reaction was stopped by adding 5 μL of ADP-Glo reagent (Promega, V9101) and incubating for 40 min. in the dark at 23° C. To determine the level of ADP, 10 μl ADP-Glo Detection solution was added and incubated for 1 hour at 23° C. in the dark. The plate was transferred to a Perkin Elmer EnVision (2104 Multilabel Reader) for luminescence detection and percent inhibition activity and IC50 value were determined using Genedata Screener.

Assay [2] addresses HPK1 (SLP76 phosphorylation at Ser376 in Jurkat and EL-4 cells) (Homo sapiens, UniProt Q92918). It is filed as cell-based. The settings on record: αCD3/αCD28 Dynabeads stimulated cells, pSLP76 (Ser376) detection; read-out: HPK1 pSLP76 IC50. On the procedure: Cellular Assay—Phospho-SLP-76 (Ser376).
Inhibition of HPK1 enzymatic activity in cells was determined by detection of SLP76 phosphorylation at Ser376 residue in lysate from Jurkat (human) and EL-4 (mouse) cells. Jurkat and EL-4 cells express both HPK1 and SLP76 naturally. All cells were cultured in RPMI 1640 media containing 10% heat inactivated fetal bovine serum (FBS) and 1×Penicillin-Streptomycin. In either Jurkat or El-4 assay, cells were pre-incubated with test compounds prior to T cell stimulation by respective αCD3/αCD28 Dynabeads™. For detection, plates were read on the Envision and percent inhibition and IC50 were determined by Smart fit in Genedata Analyzer.
For Jurkat cells: 35 μL cell suspension were dispensed at a density of 30,000 cells/well in 384-well plates containing HBSS (Gibco, 14025076)+0.1% BSA). 10-point logarithmic serial dilution of test compounds in DMSO were prepared by a Hamilton automated liquid handling robot and 35 nL was transferred into each well by an Echo liquid handler. After 60 min. pre-incubation, the cells were stimulated by adding 5 μL human T activator αCD3/αCD28 Dynabeads™ (Gibco, 11132D) at 1.2×107 beads/mL for 15 minutes at 37° C. Detection of Ser376 phosphorylation status was accomplished by first adding 10 μL of 5×AlphaLISA lysis buffer (Perkin Elmer, ALSU-PSLP-A500) to each well of the cell plate using a Multidrop Combi (5840300), followed by 20 minutes shaking. 10 μL cell lysate from each treatment were then transferred to a white 384-well plate (Corning 3572) and incubated with AlphaLISA acceptor beads for one hour (AlphaLISA SureFire Ultra p-SLP76(Ser376), Perkin Elmer, ALSU-PSLP-A500), and donor beads for additional 2 hours at room temperature in the dark.
For EL-4.IL2 assay, 50 μL cell suspension at 2×10^6 cells/mL in HBSS were first dispensed into 384-well plates and then 50 nL serial dilutions of test compounds were spotted to each well by an Echo liquid handler. After 60 min. incubation at 37° C., cells were stimulated by adding 5 μL mouse T cell activator αCD3/αCD28 Dynabeads™ (ThermFisher Scientific, 11452D) for 30 minutes at 37° C. After a brief spin and subsequent supernatant discarded, 12.5 μL of Cisbio lysis buffer were added to each well and plates were shaken for 30 min at 450 RPM. For detection, 4 μL prepared HTRF antibody mixture (Cisbio, 63ADK000U) in detection buffer were mixed with 16 μl of cell lysate and plates were incubated at room temperature for 19 hours prior to EnVision reading.

Where only a bound is given, the exact number is not on record here.

From patent US20240025922A1, “TETRAHYDROPYRIDO[3,4-d]PYRIMIDINES AS HPK1 INHIBITORS” (Merck Patent GmbH, priority 2022, published 2024) come the findings set out here.

HPK1 (SLP76 phosphorylation at Ser376 in Jurkat and EL-4 cells), sequence (Q92918 whole entry, looked up): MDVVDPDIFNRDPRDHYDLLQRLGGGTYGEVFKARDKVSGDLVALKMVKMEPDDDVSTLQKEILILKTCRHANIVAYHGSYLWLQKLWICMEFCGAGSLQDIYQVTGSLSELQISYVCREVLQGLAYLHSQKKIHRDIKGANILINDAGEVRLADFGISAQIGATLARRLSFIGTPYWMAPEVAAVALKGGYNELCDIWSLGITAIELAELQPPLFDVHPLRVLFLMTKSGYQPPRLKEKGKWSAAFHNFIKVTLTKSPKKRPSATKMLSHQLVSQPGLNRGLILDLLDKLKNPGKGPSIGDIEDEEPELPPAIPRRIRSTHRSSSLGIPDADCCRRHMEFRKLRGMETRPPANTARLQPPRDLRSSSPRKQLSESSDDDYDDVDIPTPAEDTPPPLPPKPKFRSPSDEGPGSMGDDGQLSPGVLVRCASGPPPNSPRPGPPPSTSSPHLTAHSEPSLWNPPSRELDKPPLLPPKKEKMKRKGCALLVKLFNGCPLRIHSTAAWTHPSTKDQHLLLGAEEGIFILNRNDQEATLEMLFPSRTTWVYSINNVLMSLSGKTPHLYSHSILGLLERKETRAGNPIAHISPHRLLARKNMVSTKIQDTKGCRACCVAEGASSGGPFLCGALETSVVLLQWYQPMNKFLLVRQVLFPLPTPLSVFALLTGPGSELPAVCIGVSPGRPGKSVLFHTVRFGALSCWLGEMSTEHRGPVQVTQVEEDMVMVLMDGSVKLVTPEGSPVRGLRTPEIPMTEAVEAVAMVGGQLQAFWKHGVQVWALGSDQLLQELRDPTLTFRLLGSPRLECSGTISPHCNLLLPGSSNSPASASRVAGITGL
full-length human HPK1 (MAP4K1), sequence (Q92918 whole entry): as the sequence (Q92918 whole entry, looked up) above

In general, IC50 refers to the concentration at which inhibition is half-maximal. Regarding `Cc1c(N2CCc3cnc(Nc4ccc([C@H](C)S(C)(=O)=O)cc4)nc3C2)cnc2c1NCCO2` (single isomer, unassigned) [Example 157], the values for the 50% inhibitory concentration (IC50) in assay [1] and in assay [2] were less than 0.1 µM and less than 0.5 µM, respectively. In the same order, the values of `Cc1c(N2CCc3cnc(Nc4ccc([C@@H](C)S(C)(=O)=O)cc4)nc3C2)cnc2c1NCCO2` (single isomer, unassigned) [Example 158] are less than 0.1 µM and less than 0.5 µM.

Regarding `Cc1c(N2CCc3cnc(Nc4ccc([C@H]5CCCS5(=O)=O)cc4)cc3C2)cnc2c1NCCO2` (single isomer, unassigned) [Example 169], the values for the IC50 in assay [1] and in assay [2] were less than 0.1 µM and less than 0.5 µM, respectively. In the same order, the values of `Cc1c(N2CCc3cnc(Nc4ccc([C@@H]5CCCS5(=O)=O)cc4)cc3C2)cnc2c1NCCO2` (single isomer, unassigned) [Example 170] are less than 0.1 µM and less than 0.5 µM. As for `Cc1c(N2CCc3cnc(Nc4ccc(NCCN(C)C)c(F)c4)nc3C2)cnc2c1NCCO2` [Example 1, N1-[2-(dimethylamino)ethyl]-2-fluoro-N4-(7-{8-methyl-1H,2H,3H-pyrido[2,3-b][1,4]oxazin-7-yl}-5H,6H,7H,8H-pyrido[3,4-d]pyrimidin-2-yl)benzene-1,4-diamine], the IC50 in assay [1] is less than 0.1 µM; in assay [2], less than 0.5 µM. In the same order, the values of `Cc1cc(Nc2cc3c(cn2)CCN(c2cnc4c(c2Cl)NCCO4)C3)ccc1NC(=O)CN1CCC1` [Example 2, 2-(azetidin-1-yl)-N-{4-[(6-{8-chloro-1H,2H,3H-pyrido[2,3-b][1,4]oxazin-7-yl}-5,6,7,8-tetrahydro-2,6-naphthyridin-3-yl)amino]-2-methylphenyl}acetamide] are less than 0.1 µM and less than 0.5 µM. Take `Cc1cc(Nc2ncc3c(n2)CN(c2cnc4c(c2C)NCCO4)CC3)ccc1NC(=O)CN1CCC1` [Example 3, 2-(azetidin-1-yl)-N-{2-methyl-4-[(7-{8-methyl-1H,2H,3H-pyrido[2,3-b][1,4]oxazin-7-yl}-5H,6H,7H,8H-pyrido[3,4-d]pyrimidin-2-yl)amino]phenyl}acetamide]: the figures for the IC50 in assay [1] and in assay [2] were less than 0.1 µM and less than 0.5 µM, respectively. On to `Cc1c(N2CCc3cnc(Nc4ccc(NCCN5CCOCC5)c(F)c4)cc3C2)cnc2c1NCCO2` [Example 4, 2-fluoro-N4-(6-{8-methyl-1H,2H,3H-pyrido[2,3-b][1,4]oxazin-7-yl}-5,6,7,8-tetrahydro-2,6-naphthyridin-3-yl)-N1-[2-(morpholin-4-yl)ethyl]benzene-1,4-diamine], for which the IC50 in assay [1] is less than 0.1 µM; in assay [2], less than 0.5 µM. For `COc1cccc(F)c1N1CCc2cnc(Nc3cnc4c(c3)CN(C)CC4)nc2C1` [Example 120, 7-(2-fluoro-6-methoxyphenyl)-N-(6-methyl-5,6,7,8-tetrahydro-1,6-naphthyridin-3-yl)-5,6,7,8-tetrahydropyrido[3,4-d]pyrimidin-2-amine], the IC50 in assay [2] is greater than 1 µM. Turning to `Cc1c(N2CCc3cnc(Nc4ccc(CS(C)(=O)=O)cc4)nc3C2)cnc2oc(=O)[nH]c12` [Example 160, 6-(2-{[4-(methanesulfonylmethyl)phenyl]amino}-5H,6H,7H,8H-pyrido[3,4-d]pyrimidin-7-yl)-7-methyl-1H,2H-[1,3]oxazolo[5,4-b]pyridin-2-one], the IC50 in assay [1] was less than 0.1 µM. On the same count and under the same terms, to `COCCS(=O)(=O)Cc1ccc(Nc2cc3c(cn2)CCN(c2cnc4c(c2C)NCCO4)C3)cc1` [Example 172, N-{4-[(2-methoxyethanesulfonyl)methyl]phenyl}-6-{8-methyl-1H,2H,3H-pyrido[2,3-b][1,4]oxazin-7-yl}-5,6,7,8-tetrahydro-2,6-naphthyridin-3-amine] belongs less than 0.1 µM. Same read-out and setting: to `Cc1cc(Nc2ncc3c(n2)CN(c2cnc4c(c2Cl)NCCO4)CC3)ccc1CS(C)(=O)=O` [Example 177, 7-{8-chloro-1H,2H,3H-pyrido[2,3-b][1,4]oxazin-7-yl}-N-[4-(methanesulfonylmethyl)-3-methylphenyl]-5H,6H,7H,8H-pyrido[3,4-d]pyrimidin-2-amine] belongs less than 0.1 µM.
